Legend:
Type in all cases: in vivo
Phytophthora infestans = test: whole plant or invertebrate; conditions: for pest or weed control at 200 ppm: read-out: PHYTIN disease control, 200 ppm applied to foliage of tomato
[1] = tested on: Magnaporthe grisea=Pyricularia oryzae; test: whole plant or invertebrate; conditions: for pest or weed control at 200 ppm: read-out: PYRIOR disease control, 200 ppm applied to foliage of rice
Erysiphe cichoracaerum = test: Cucumber Powdery Mildew (ERYSCI) whole-plant disease control test; conditions: for pest or weed control at 200 ppm: read-out: ERYSCI disease control
[2] = tested on: Puccinia recondita tritici; test: Leaf Rust of Wheat (PUCCRT) whole-plant disease control test; conditions: for pest or weed control at 200 ppm: read-out: PUCCRT disease control
[3] = tested on: Mycosphaerella graminicola=Septoria tritici; test: Speckled Leaf Blotch of Wheat (SEPTTR) whole-plant disease control test; conditions: 75 ppm applied to foliage of wheat; for pest or weed control at 75 ppm: Mycosphaerella, foliar, read-out: SEPTTR disease control
Colletotricum lagenarium = test: Cucumber Anthracnose (COLLLA) whole-plant disease control test; conditions: for pest or weed control at 200 ppm: read-out: COLLLA disease control
Leptosphaeria nodorum = test: Glume Blotch of Wheat (LEPTNO) whole-plant disease control test; conditions: for pest or weed control at 200 ppm: read-out: LEPTNO disease control
[4] = Phytophthora infestans, in Solanum lycopersicum, foliar, inoculated one day after treatment
[5] = Pyricularia oryzae, foliar, inoculated one day after treatment
[6] = Erysiphe, foliar, 200 ppm applied to foliage of cucumber, inoculated one day after treatment
[7] = Puccinia recondita, foliar, 200 ppm applied to foliage of wheat, inoculated one day after treatment
[8] = Cucumis sativus, foliar, 200 ppm applied to foliage of cucumber, inoculated one day after treatment
[9] = Parastagonospora nodorum, foliar, 200 ppm applied to foliage of wheat, inoculated one day after treatment
[10] = 200 ppm applied to foliage of cucumber, inoculated one day after treatment
[11] = 200 ppm applied to foliage of wheat, inoculated one day after treatment

Row | SMILES | pest or weed control at 200 ppm (Phytophthora infestans; [4]) [%] | pest or weed control at 200 ppm [1, 5] [%] | pest or weed control at 200 ppm (Erysiphe cichoracaerum; [6]) [%] | pest or weed control at 200 ppm [2, 7] [%] | pest or weed control at 75 ppm [3] [%] | pest or weed control at 200 ppm (Colletotricum lagenarium; [8]) [%] | pest or weed control at 200 ppm (Leptosphaeria nodorum; [9]) [%] | pest or weed control at 100 ppm (Phytophthora infestans; Phytophthora infestans, in Solanum lycopersicum, foliar, read-out: PHYTIN disease control, 100 ppm (footnote a), tomato foliage) [%] | pest or weed control at 8.3 ppm ([1]; Pyricularia oryzae, foliar, read-out: PYRIOR disease control, 8.3 ppm (footnote c), rice foliage) [%] | pest or weed control at 100 ppm (Erysiphe cichoracaerum; Erysiphe, foliar, 100 ppm (footnote a), cucumber foliage) [%] | pest or weed control at 8.3 ppm ([2]; Puccinia recondita, foliar, 8.3 ppm (footnote c), wheat foliage) [%] | pest or weed control at 100 ppm (Colletotricum lagenarium; Cucumis sativus, foliar, 100 ppm (footnote a), cucumber foliage) [%] | pest or weed control at 75 ppm (Leptosphaeria nodorum; Parastagonospora nodorum, foliar, 75 ppm (footnote b), wheat foliage) [%] | PHYTIN disease control (Phytophthora infestans; 200 ppm applied to foliage of tomato, inoculated one day after treatment) | PYRIOR disease control ([1]; 200 ppm applied to foliage of rice, inoculated one day after treatment) | ERYSCI disease control (Erysiphe cichoracaerum; [10]) | PUCCRT disease control [2, 11] | SEPTTR disease control [3] | COLLLA disease control (Colletotricum lagenarium; [10]) | LEPTNO disease control (Leptosphaeria nodorum; [11])
1 | Cc1cc(Br)cnc1Oc1ccc(CCNc2ncnc3scc(Cl)c23)cc1 [Compound 42] | 0 to 49 | 80 to 100 | 0 to 49 | 0 to 49 | 80 to 100 | 0 to 49 | 50 to 79 |  |  |  |  |  |  |  |  |  |  |  |  | 
2 | Clc1csc2ncnc(NCCc3ccc(Oc4cc(I)ccn4)cc3)c12 [Compound 43] | 0 to 49 | 80 to 100 | 80 to 100 | 80 to 100 | 80 to 100 | 50 to 79 | 80 to 100 |  |  |  |  |  |  |  |  |  |  |  |  | 
3 | FC(F)(F)COc1ccnc(Oc2ccc(CCNc3ncnc4scc(Cl)c34)cc2)n1 [Compound 44] | 50 to 79 | 80 to 100 | 50 to 79 | 80 to 100 | 80 to 100 | 0 to 49 | 80 to 100 |  |  |  |  |  |  |  |  |  |  |  |  | 
4 | Clc1nccc(Oc2ccc(CCNc3ncnc4scc(Cl)c34)cc2)n1 [Compound 45] | 0 to 49 | 50 to 79 | 0 to 49 | 80 to 100 | 50 to 79 | 0 to 49 | 0 to 49 |  |  |  |  |  |  |  |  |  |  |  |  | 
5 | CC(=O)c1cnc(Oc2ccc(CCNc3ncnc4scc(Cl)c34)cc2)s1 [Compound 46] | 0 to 49 | 50 to 79 | 0 to 49 | 80 to 100 | 50 to 79 | 0 to 49 | 0 to 49 |  |  |  |  |  |  |  |  |  |  |  |  | 
6 | N#Cc1ccnc(Oc2ccc(CCNc3ncnc4scc(Br)c34)cc2)c1 [Compound 47] |  |  |  |  | 50 to 79 |  |  | 0 to 49 | 80 to 100 | 80 to 100 | 80 to 100 | 0 to 49 | 80 to 100 |  |  |  |  |  |  | 
7 | CO/N=C(\C)c1cnc(Oc2ccc(CCNc3ncnc4scc(Cl)c34)cc2)s1 [Compound 48] | 80 to 100 | 80 to 100 | 80 to 100 | 80 to 100 | 50 to 79 | 50 to 79 | 0 to 49 |  |  |  |  |  |  |  |  |  |  |  |  | 
8 | c1csc(Oc2ccc(CCNc3ncnc4sccc34)cc2)n1 [Compound 49] | 80 to 100 | 80 to 100 | 80 to 100 | 80 to 100 | 50 to 79 | 50 to 79 | 50 to 79 |  |  |  |  |  |  |  |  |  |  |  |  | 
9 | Cc1cc(Oc2ccc(CCNc3ncnc4scc(Cl)c34)cc2)cnc1S(C)(=O)=O [Compound 50] | 80 to 100 | 80 to 100 | 0 to 49 | 80 to 100 | 50 to 79 | 50 to 79 | 50 to 79 |  |  |  |  |  |  |  |  |  |  |  |  | 
10 | Clc1cc(Br)cnc1Oc1ccc(CCNc2ncnc3scc(Cl)c23)cc1 [Compound 51] | 0 to 49 | 80 to 100 | 0 to 49 | 80 to 100 | 50 to 79 | 0 to 49 | 0 to 49 |  |  |  |  |  |  |  |  |  |  |  |  | 
11 | CCc1ncnc(Oc2ccc(CCNc3ncnc4scc(Cl)c34)cc2)c1Cl [Compound 52] | 0 to 49 | 80 to 100 | 50 to 79 | 80 to 100 | 80 to 100 | 50 to 79 | 50 to 79 |  |  |  |  |  |  |  |  |  |  |  |  | 
12 | N#Cc1ccnc(Oc2ccc(CCNc3ncnc4sccc34)cc2)c1 [Compound 53] | 80 to 100 | 80 to 100 | 50 to 79 | 80 to 100 | 50 to 79 | 80 to 100 | 50 to 79 |  |  |  |  |  |  |  |  |  |  |  |  | 
13 | Clc1csc2ncnc(NCCc3ccc(Oc4ncnc5sccc45)cc3)c12 [Compound 54] | 80 to 100 | 80 to 100 | 50 to 79 | 80 to 100 | 0 to 49 | 80 to 100 | 50 to 79 |  |  |  |  |  |  |  |  |  |  |  |  | 
14 | N#Cc1ccnc(Oc2ccc(CCNc3ncnc4scc(F)c34)cc2)c1 [Compound 55] | 50 to 79 | 0 to 49 | 50 to 79 | 80 to 100 | 50 to 79 | 80 to 100 | 0 to 49 |  |  |  |  |  |  |  |  |  |  |  |  | 
15 | Brc1csc2ncnc(NCCc3ccc(Oc4ncnc5scc(Br)c45)cc3)c12 [Compound 57] | 0 to 49 | 80 to 100 | 0 to 49 | 80 to 100 | 0 to 49 | 50 to 79 | 0 to 49 |  |  |  |  |  |  |  |  |  |  |  |  | 
16 | N#Cc1nc(Cl)ccc1Oc1ccc(CCNc2ncnc3scc(Cl)c23)cc1 [Compound 58] | 0 to 49 | 80 to 100 | 0 to 49 | 80 to 100 | 50 to 79 | 0 to 49 | 50 to 79 |  |  |  |  |  |  |  |  |  |  |  |  | 
17 | N#Cc1nc(Oc2ccc(CCNc3ncnc4scc(Cl)c34)cc2)ccc1Cl [Compound 59] | 0 to 49 | 80 to 100 | 50 to 79 | 80 to 100 | 0 to 49 | 80 to 100 | 0 to 49 |  |  |  |  |  |  |  |  |  |  |  |  | 
18 | Fc1cnc(C(F)(F)F)c(F)c1Oc1ccc(CCNc2ncnc3scc(Cl)c23)cc1 [Compound 61] | 0 to 49 | 80 to 100 | 80 to 100 | 80 to 100 | 80 to 100 | 80 to 100 | 50 to 79 |  |  |  |  |  |  |  |  |  |  |  |  | 
19 | FC(F)(F)c1cc(Cl)nc(Oc2ccc(CCNc3ncnc4scc(Cl)c34)cc2)c1 [Compound 62] | 0 to 49 | 80 to 100 | 50 to 79 | 80 to 100 | 50 to 79 | 80 to 100 | 0 to 49 |  |  |  |  |  |  |  |  |  |  |  |  | 
20 | COc1cc(C(F)(F)F)cc(Oc2ccc(CCNc3ncnc4scc(Cl)c34)cc2)n1 [Compound 63] | 50 to 79 | 80 to 100 | 80 to 100 | 80 to 100 | 50 to 79 | 50 to 79 | 0 to 49 |  |  |  |  |  |  |  |  |  |  |  |  | 
21 | FC(F)(F)c1cnc(Oc2ccc(CCNc3ncnc4scc(Cl)c34)cc2)c(Cl)c1 [Compound 64] | 0 to 49 | 80 to 100 | 80 to 100 | 80 to 100 | 80 to 100 | 50 to 79 | 0 to 49 |  |  |  |  |  |  |  |  |  |  |  |  | 
22 | FC(F)(F)c1ccc(Oc2ccc(CCNc3ncnc4scc(Cl)c34)cc2)cn1 [Compound 65] | 80 to 100 | 80 to 100 | 50 to 79 | 80 to 100 | 80 to 100 | 80 to 100 | 50 to 79 |  |  |  |  |  |  |  |  |  |  |  |  | 
23 | Cc1noc2ncnc(Oc3ccc(CCNc4ncnc5scc(Cl)c45)cc3)c12 [Compound 66] | 0 to 49 | 50 to 79 | 0 to 49 | 80 to 100 | 50 to 79 | 0 to 49 | 0 to 49 |  |  |  |  |  |  |  |  |  |  |  |  | 
24 | FC(F)(F)c1ccc(Oc2cccc(CCNc3ncnc4scc(Cl)c34)c2)nc1 [Compound 67, (5-Chlorothieno[2,3-d]pyrimidin-4-yl)-{2-[3-(5-trifluoromethylpyridin-2-yloxy)phenyl]ethyl}amine] | 50 to 79 | 80 to 100 | 50 to 79 | 80 to 100 | 80 to 100 | 0 to 49 | 50 to 79 |  |  |  |  |  |  |  |  |  |  |  |  | 
25 | Clc1csc2ncnc(NCCc3ccc(Oc4ncnc5scc(Cl)c45)cc3)c12 [Compound 68] |  |  |  |  |  |  |  |  |  |  |  |  |  | ** (** = 50–79 percent control) | *** (*** = 80–100 percent control) | * (* = 0–49 percent control) | *** (*** = 80–100 percent control) | * (* = 0–49 percent control) | * (* = 0–49 percent control) | * (* = 0–49 percent control)
